These results are taken from PMC9736855, “Discovery of 3-Amino-1H-pyrazole-Based Kinase Inhibitors to Illuminate the Understudied PCTAIRE Family” (International Journal of Molecular Sciences, 2022).

Experiment [1] deals with RPS6KA1. Put plainly: DSF. Format: binding.
Description: Recombinant protein kinase domains with a concentration of 2 μM were mixed with a 10 μM compound solution in DMSO, 20 mM HEPES, pH 7.5, and 500 mM NaCl. SYPRO Orange (5000×, Invitrogen) was added as a fluorescence probe (1 µl per mL). Subsequently, temperature-dependent protein unfolding profiles were measured, using the QuantStudio™ 5 realtime PCR machine (Thermo Fisher, Waltham, MA, USA). […] The temperature was raised with a step rate of 3 °C per minute. Data points were analyzed with the internal software (Thermal Shift SoftwareTM Version 1.4, Thermo Fisher) using the Boltzmann equation to determine the inflection point of the transition curve [56]. Differences in melting temperature are given as ΔTm values in °C. Measurements were performed in duplicates.
In experiment [2] the target is T1, CDK1/Cyclin E1 (Homo sapiens, UniProt P06493).
T1 construct: Full-length kinases were obtained as plasmids cloned in frame with a terminal NanoLuc-fusion; CS1810C171 (CCNE1); host or cells: HEK293T
T1 sequence (P06493 whole entry, the tested form may be a part): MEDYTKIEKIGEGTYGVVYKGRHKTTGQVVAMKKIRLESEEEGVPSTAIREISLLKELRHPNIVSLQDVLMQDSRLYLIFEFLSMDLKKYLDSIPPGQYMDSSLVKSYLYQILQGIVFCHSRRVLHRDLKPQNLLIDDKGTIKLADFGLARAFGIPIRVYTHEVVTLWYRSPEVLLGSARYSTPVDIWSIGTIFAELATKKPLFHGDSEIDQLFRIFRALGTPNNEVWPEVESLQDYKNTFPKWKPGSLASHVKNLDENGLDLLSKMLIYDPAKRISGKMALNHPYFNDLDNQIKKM
Put plainly: NanoBRET. In kind it is cell-based. The following applies: read-out: NanoBRET EC50 ± SEM CDK1/Cyclin E1. The protocol:
(§1) The assay was performed as described previously. In brief: Full-length kinases were obtained as plasmids cloned in frame with a terminal NanoLuc-fusion (Promega, Madison, WI, USA), as specified in table (Table S6). Plasmids were transfected into HEK293T cells using FuGENE HD (Promega, E2312) and proteins were allowed to express for 20h. Serially diluted inhibitor and NanoBRET Kinase Tracer (Promega) at a concentration determined previously as the KD,app (Table S5) were pipetted into white 384-well plates (Greiner 781207) using an Echo acoustic dispenser (Labcyte, San Jose, CA, USA). The corresponding protein-transfected cells were added and reseeded at a density of 2.5 × 10^5 cells/mL after trypsinization and resuspending in Opti-MEM without phenol red (Life Technologies, Carlsbad, CA, USA). The system was allowed to equilibrate for 2 h at 37 °C/5% CO2 prior to BRET measurements. To measure BRET, NanoBRET NanoGlo Substrate + Extracellular NanoLuc Inhibitor (Promega, N2540) was added as per the manufacturer’s protocol, and filtered luminescence was measured on a PHERAstar plate reader (BMG Labtech, Ortenberg, Germany) equipped with a luminescence filter pair (450 nm BP filter (donor) and 610 nm LP filter (acceptor)). Competitive displacement data were then graphed using GraphPad Prism 9 software using a normalized 3-parameter curve fit with the following equation: Y = 100/(1 + 10^(X–LogEC50)).
For orientation: Bioluminescence resonance energy transfer reports proximity on the nanometre scale.

The target in experiment [3] is T2, CDK11A/Cyclin K (Homo sapiens, UniProt Q9UQ88).
T2 sequence (Q9UQ88 1-783): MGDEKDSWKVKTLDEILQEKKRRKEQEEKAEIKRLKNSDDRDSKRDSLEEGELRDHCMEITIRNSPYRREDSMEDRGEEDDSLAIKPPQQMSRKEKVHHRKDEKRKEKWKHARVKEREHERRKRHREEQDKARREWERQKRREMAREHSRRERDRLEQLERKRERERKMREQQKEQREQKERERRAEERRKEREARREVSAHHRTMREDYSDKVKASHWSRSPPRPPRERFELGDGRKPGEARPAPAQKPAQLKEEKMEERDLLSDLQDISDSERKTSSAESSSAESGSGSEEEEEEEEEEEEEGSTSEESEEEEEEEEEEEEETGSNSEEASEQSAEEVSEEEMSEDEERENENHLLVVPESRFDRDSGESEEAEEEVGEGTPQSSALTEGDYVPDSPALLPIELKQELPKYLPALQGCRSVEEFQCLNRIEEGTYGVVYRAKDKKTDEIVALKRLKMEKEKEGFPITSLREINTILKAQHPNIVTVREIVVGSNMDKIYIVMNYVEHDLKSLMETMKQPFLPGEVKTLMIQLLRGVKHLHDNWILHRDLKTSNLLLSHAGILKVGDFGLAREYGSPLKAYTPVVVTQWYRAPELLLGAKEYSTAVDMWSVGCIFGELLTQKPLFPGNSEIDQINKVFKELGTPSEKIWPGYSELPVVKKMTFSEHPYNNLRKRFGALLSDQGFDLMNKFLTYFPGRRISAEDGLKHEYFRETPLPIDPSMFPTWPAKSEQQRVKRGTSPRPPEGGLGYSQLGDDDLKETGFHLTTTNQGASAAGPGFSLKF
Put plainly: NanoBRET. The following applies: read-out: NanoBRET EC50 ± SEM CDK11A/Cyclin K. Format: cell-based. Here is the method: as §1

Experiment [4] has as its target CDK11B/Cyclin L2 (Homo sapiens, UniProt P21127). The experiment can be described thus: NanoBRET. In kind it is cell-based. The following applies: read-out: NanoBRET EC50 ± SEM CDK11B/Cyclin L2. The protocol:
as §1

Experiment [5] concerns the target T3, CDK13/Cyclin K (Homo sapiens, UniProt Q14004).
T3 construct: Full-length kinases were obtained as plasmids cloned in frame with a terminal NanoLuc-fusion; CS1810C93 (CCNK); host or cells: HEK293T
The experiment can be described thus: NanoBRET. In kind it is cell-based. The following applies: read-out: NanoBRET EC50 ± SEM CDK13/Cyclin K. Here is the method:
as §1

In experiment [6] the target is T4, CDK15/Cyclin Y (Homo sapiens, UniProt Q96Q40).
T4 construct: Full-length kinases were obtained as plasmids cloned in frame with a terminal NanoLuc-fusion; CS1810C178 (CCNY); host or cells: HEK293T
T4 sequence (Q96Q40 whole entry, the tested form may be a part): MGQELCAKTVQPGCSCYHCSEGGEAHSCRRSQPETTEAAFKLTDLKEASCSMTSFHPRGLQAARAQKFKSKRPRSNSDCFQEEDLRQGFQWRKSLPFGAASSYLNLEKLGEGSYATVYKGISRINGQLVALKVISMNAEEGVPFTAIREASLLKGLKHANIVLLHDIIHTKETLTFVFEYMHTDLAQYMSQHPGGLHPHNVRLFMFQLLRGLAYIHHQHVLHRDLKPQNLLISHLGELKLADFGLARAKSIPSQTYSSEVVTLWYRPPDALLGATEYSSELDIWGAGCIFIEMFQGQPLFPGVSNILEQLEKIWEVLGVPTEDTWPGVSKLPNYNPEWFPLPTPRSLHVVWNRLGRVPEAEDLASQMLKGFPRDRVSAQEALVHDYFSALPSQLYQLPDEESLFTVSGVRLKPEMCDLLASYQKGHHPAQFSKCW
T4 sequence (Q8ND76 2-341 partner limits assumed): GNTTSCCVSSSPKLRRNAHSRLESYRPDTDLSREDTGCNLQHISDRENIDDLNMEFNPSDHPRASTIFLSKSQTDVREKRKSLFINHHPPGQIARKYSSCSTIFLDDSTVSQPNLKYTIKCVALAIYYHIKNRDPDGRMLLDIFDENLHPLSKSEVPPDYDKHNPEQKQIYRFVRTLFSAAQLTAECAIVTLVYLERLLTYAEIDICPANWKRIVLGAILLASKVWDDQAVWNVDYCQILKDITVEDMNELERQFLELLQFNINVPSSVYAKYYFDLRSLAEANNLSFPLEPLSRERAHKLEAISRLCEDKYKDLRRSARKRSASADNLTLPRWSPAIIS
Put plainly: NanoBRET. Format: cell-based. The following applies: read-out: NanoBRET EC50 ± SEM CDK15/Cyclin Y. Here is the method:
as §1

Experiment [7] deals with T5, CDK2/Cyclin A1 (Homo sapiens, UniProt P24941).
T5 construct: Full-length kinases were obtained as plasmids cloned in frame with a terminal NanoLuc-fusion; CS1810C172 (CCNA1); host or cells: HEK293T
Put plainly: NanoBRET. The following applies: read-out: NanoBRET EC50 ± SEM CDK2/Cyclin A1. Format: cell-based. Here is the method:
as §1

The target in experiment [8] is CDK20/Cyclin H (Homo sapiens, UniProt Q8IZL9). The experiment can be described thus: NanoBRET. The following applies: read-out: NanoBRET EC50 ± SEM CDK20/Cyclin H. In kind it is cell-based. Here is the method: as §1
CDK20/Cyclin H, sequence (Q8IZL9 whole entry): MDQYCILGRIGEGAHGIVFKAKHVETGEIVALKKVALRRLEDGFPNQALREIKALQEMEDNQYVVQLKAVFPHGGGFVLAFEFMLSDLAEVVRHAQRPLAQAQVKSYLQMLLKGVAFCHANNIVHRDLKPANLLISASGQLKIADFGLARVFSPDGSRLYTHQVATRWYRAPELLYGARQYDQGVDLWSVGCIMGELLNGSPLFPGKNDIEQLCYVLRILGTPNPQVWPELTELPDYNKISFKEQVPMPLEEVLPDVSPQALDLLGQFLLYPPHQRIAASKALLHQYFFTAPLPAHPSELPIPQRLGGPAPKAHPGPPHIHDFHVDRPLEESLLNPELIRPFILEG
CDK20/Cyclin H, sequence (P51946 whole entry partner): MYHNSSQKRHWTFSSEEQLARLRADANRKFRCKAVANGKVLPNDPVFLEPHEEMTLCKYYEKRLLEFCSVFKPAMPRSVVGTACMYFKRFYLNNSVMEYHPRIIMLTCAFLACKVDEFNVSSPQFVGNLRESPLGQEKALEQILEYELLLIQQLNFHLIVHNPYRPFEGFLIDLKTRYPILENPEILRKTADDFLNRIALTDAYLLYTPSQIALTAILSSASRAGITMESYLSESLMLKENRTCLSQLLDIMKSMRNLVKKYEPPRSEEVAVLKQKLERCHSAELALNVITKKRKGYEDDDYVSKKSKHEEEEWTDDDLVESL
Experiment [9] addresses T6, CDK4/Cyclin D3 (Homo sapiens, UniProt P11802).
T6 construct: Full-length kinases were obtained as plasmids cloned in frame with a terminal NanoLuc-fusion; CS1810C87 (CCND3); host or cells: HEK293T
The experiment can be described thus: NanoBRET. Format: cell-based. The following applies: read-out: NanoBRET EC50 ± SEM CDK4/Cyclin D3. Here is the method: as §1

Experiment [10] concerns the target T7, CDK7 (Homo sapiens, UniProt P50613).
T7 construct: Full-length kinases were obtained as plasmids cloned in frame with a terminal NanoLuc-fusion; host or cells: HEK293T
Put plainly: NanoBRET. Format: cell-based. The following applies: read-out: NanoBRET EC50 ± SEM CDK7. The protocol: as §1

Experiment [11] addresses T8, CDK9/Cyclin K (Homo sapiens, UniProt P50750).
T8 construct: Full-length kinases were obtained as plasmids cloned in frame with a terminal NanoLuc-fusion; CS1810C93 (CCNK); host or cells: HEK293T
Put plainly: NanoBRET. Format: cell-based. The following applies: read-out: NanoBRET EC50 ± SEM CDK9/Cyclin K. The protocol: as §1
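For ΔTm RPS6KA1 in this document: compound tested at 10 µM with 2 µM protein.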

T7 sequence (P50613 whole entry, the tested form may be a part): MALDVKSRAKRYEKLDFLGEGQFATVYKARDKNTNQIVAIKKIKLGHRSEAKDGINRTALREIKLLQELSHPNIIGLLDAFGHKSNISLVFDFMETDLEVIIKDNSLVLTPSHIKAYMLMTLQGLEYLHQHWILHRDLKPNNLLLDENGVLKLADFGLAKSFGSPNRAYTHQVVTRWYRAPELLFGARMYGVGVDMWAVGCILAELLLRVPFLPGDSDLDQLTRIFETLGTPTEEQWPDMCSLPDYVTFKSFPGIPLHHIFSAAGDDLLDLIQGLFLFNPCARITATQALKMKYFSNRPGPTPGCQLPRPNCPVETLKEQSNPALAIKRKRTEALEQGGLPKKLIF
T8 sequence (P50750 whole entry, the tested form may be a part): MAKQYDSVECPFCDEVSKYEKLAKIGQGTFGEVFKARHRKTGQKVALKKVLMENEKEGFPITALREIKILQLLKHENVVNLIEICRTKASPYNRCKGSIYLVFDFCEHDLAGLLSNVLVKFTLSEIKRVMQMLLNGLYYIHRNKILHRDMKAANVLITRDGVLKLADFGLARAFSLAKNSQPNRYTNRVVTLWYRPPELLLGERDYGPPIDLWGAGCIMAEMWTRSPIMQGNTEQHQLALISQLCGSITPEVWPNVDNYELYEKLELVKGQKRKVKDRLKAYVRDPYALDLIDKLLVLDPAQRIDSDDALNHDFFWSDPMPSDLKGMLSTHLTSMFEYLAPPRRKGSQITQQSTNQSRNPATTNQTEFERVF
T3 sequence (Q14004 whole entry, the tested form may be a part): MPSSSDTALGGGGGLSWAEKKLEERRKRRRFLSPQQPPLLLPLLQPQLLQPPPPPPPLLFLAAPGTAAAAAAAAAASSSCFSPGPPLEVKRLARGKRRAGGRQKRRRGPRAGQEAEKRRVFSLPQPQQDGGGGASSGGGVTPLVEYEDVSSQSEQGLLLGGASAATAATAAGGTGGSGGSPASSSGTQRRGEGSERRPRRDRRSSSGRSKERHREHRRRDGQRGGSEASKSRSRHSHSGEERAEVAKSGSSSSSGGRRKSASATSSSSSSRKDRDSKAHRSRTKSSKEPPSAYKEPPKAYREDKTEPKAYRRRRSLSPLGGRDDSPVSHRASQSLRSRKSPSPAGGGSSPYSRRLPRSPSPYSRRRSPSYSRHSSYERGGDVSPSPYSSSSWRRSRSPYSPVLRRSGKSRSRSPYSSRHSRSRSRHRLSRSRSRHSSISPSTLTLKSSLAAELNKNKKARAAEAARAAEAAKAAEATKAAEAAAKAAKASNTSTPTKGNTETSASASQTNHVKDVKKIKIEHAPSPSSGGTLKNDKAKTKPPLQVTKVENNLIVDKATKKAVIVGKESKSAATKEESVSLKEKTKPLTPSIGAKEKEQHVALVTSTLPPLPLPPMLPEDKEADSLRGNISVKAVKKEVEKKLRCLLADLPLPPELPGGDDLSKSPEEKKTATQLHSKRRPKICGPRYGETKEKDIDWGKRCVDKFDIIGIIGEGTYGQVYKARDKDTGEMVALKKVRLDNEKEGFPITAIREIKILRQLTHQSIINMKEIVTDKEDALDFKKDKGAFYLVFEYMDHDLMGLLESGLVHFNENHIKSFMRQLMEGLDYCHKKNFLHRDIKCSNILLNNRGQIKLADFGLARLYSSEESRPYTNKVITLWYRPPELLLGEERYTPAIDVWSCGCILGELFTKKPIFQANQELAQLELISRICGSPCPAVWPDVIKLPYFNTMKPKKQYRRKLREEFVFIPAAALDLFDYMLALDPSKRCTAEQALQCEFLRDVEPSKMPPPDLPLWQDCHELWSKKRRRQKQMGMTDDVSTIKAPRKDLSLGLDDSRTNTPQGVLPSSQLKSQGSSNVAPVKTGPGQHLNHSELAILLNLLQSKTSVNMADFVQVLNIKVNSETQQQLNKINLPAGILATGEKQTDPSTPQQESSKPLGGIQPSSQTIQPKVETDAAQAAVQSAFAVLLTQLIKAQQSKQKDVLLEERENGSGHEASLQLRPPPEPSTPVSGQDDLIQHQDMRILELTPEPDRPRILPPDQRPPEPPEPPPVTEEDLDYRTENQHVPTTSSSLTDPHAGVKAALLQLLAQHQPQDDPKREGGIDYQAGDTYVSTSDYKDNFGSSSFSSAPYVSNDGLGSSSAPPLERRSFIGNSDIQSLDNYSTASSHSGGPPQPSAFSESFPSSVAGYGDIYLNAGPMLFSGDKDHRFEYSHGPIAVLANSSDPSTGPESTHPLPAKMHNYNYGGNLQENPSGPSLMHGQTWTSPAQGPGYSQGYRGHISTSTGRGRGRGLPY
T3 sequence (O75909 whole entry partner, the tested form may be a part): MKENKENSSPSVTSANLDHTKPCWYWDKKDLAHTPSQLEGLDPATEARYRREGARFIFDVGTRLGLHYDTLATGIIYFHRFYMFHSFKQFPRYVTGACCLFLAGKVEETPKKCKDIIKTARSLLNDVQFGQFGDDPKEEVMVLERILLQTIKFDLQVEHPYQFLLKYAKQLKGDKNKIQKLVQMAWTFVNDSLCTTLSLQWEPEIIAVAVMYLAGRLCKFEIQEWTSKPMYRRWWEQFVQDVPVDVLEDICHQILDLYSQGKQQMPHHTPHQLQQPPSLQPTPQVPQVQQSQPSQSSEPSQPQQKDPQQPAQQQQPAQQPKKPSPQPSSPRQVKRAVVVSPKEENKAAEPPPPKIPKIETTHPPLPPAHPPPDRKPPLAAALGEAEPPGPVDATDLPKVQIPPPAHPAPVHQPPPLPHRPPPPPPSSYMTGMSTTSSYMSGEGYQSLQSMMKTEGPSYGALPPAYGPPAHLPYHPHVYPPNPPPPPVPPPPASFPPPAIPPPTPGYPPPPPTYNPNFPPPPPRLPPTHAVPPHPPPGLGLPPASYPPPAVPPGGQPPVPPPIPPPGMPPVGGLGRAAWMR

In the case of `N#CCc1ccc(Nc2nccc(Nc3cc(C4CC4)[nH]n3)n2)cc1` [compound 1, reference compound], in experiment [1], the “ΔTm RPS6KA1” value worked out at 5.1 °C. For the same compound, the EC50 in [2] was found to be 0.0052 ± 0.0025 µM; in [3], 0.999 ± 0.476 µM; in experiment [4], 0.669 ± 0.406 µM; in [5], 0.0661 ± 0.0199 µM; in [6], 0.0934 ± 0.0417 µM; in experiment [7], 0.06 ± 0.0411 µM. Besides, the EC50 in experiment [8] turned out to be 2.66 ± 0.568 µM; in experiment [9], 0.0321 ± 0.0031 µM; in experiment [10] it was 0.103 ± 0.0432 µM; in [11], 0.0174 ± 0.0054 µM.

For `CC(C)(C)OC(=O)Nc1ccc(CNc2nccc(Nc3cc(C(=O)OC(C)(C)C)[nH]n3)n2)cc1` [43d, tert-butyl 3-((2-((4-((tert-butoxycarbonyl)amino)benzyl)amino)pyrimidin-4-yl)amino)-1H-pyrazole-5-carboxylate], in experiment [1], the “ΔTm RPS6KA1” value turned out to be 0.2 °C. For the same compound, the EC50 in experiment [2] stood at 0.582 µM; in experiment [3], 7.98 ± 3.74 µM; in experiment [4] it was 3.58 ± 1.73 µM; in experiment [6], 0.302 µM; in experiment [7], 1.67 ± 0.42 µM; in [8] it was 1.71 ± 0.222 µM. Also, the EC50 in experiment [9] was found to be 0.908 ± 0.113 µM; in experiment [10], 1.46 ± 0.552 µM; in experiment [11], 0.993 µM.

In the case of `CC(C)OC(=O)c1cc(Nc2ccnc(NCc3ccc(NC(=O)OC(C)(C)C)cc3)n2)n[nH]1` [42d, isopropyl 3-((2-((4-((tert-butoxycarbonyl)amino)benzyl)amino)pyrimidin-4-yl)amino)-1H-pyrazole-5-carboxylate], the “ΔTm RPS6KA1” value in experiment [1] was -0.3 °C. The EC50 in [2] is 0.2 ± 0.0428 µM; in experiment [3], 3.1 ± 1.35 µM; in experiment [4] it was 2.99 ± 1.33 µM; in experiment [5], 3.83 ± 2.28 µM; in experiment [6] it was 0.167 ± 0.0149 µM; in experiment [7], 32.5 ± 13.9 µM. For the same compound, the EC50 in experiment [8] turned out to be 0.745 ± 0.35 µM; in [9] it was 0.508 ± 0.0866 µM; in experiment [10], 1.14 ± 0.658 µM; in experiment [11] it was 0.575 ± 0.157 µM.

Consider `COC(=O)c1cc(Nc2ccnc(NCCOCCNC(=O)OC(C)(C)C)n2)[nH]n1` [21d, methyl 5-((2-((2-(2-((tert-butoxycarbonyl)amino)ethoxy)ethyl)amino)pyrimidin-4-yl)amino)-1H-pyrazole-3-carboxylate], for which the “ΔTm RPS6KA1” value in experiment [1] was 0.5 °C.

Turning to `COC(=O)c1cc(Nc2ccnc(NCc3ccc(NC(=O)OC(C)(C)C)cc3)n2)[nH]n1` [21i, methyl 5-((2-((4-((tert-butoxycarbonyl)amino)benzyl)amino)pyrimidin-4-yl)amino)-1H-pyrazole-3-carboxylate], the “ΔTm RPS6KA1” value in [1] was found to be 1.0 °C. Besides, the EC50 in experiment [2] worked out at 6.42 ± 3.46 µM; in experiment [3] it was 21.1 ± 11 µM; in [4] it was 16.7 ± 7.89 µM; in [5], 24.2 ± 5.88 µM; in experiment [6] it was 2.09 ± 0.496 µM; in [7], 36.7 ± 3.31 µM. The EC50 in [8] came to 8.42 ± 0.629 µM; in experiment [9], 6.78 ± 1.46 µM; in experiment [10], 10.4 ± 4.77 µM; in [11], 7 ± 2.12 µM.
